Laboratory results as given in patent US10294202B2, “Pyrrolidinones as herbicides” (FMC Corporation, priority 2013, dated 2019).

Tests used:
ducksalad = experiment: Test C flooded paddy test; type: in vivo, Heteranthera limosa; conditions: Flood
Summary of the method: (§1)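 2-leaf stage; flood 3 cm over soil; compound into paddy water; depth held; greenhouse 13–15 d; visual % control vs untreated (0 = none, 100 = complete); "-" = not tested.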

barnyardgrass [1] = experiment: Test A pre-/postemergence herbicide test; type: in vivo, Echinochloa crus-galli
Summary of the method: (§2)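 Scoring was visual, relative to untreated controls, on a 0–100 scale after about 10 greenhouse days. Preemergence treatment used a directed soil spray over seeded loam/sand; postemergence treatment targeted one- to two-leaf plants of 2–10 cm.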

rice = experiment: Test C flooded paddy test; type: in vivo, Oryza sativa; conditions: Flood
Summary of the method: as §1

corn = experiment: Test A pre-/postemergence herbicide test; type: in vivo, Zea mays; conditions: Postemergence
Summary of the method: as §2

pigweed = experiment: Test A pre-/postemergence herbicide test; type: in vivo, Amaranthus retroflexus; conditions: for Plant response rating, Pigweed: 0 to 100 scale
Summary of the method: as §2

ryegrass, Italian = experiment: Test A pre-/postemergence herbicide test; type: in vivo, Lolium multiflorum; conditions: for Plant response rating, Ryegrass, Italian: 0 to 100 scale
Summary of the method: as §2

barnyardgrass [2] = experiment: Test C flooded paddy test; type: in vivo, Echinochloa crus-galli; conditions: Flood
Summary of the method: as §1

blackgrass = experiment: Test A postemergence herbicide test; type: in vivo, Alopecurus myosuroides
Summary of the method: (§3)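 Plants at the one- to two-leaf stage, 2–10 cm tall, grown in loam/sand pots, received postemergence sprays of the test chemicals. After about 10 days in the greenhouse, injury was scored visually against untreated controls on a 0–100 scale (0 none, 100 complete control).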

galium = experiment: Test A postemergence herbicide test; type: in vivo, Galium aparine; conditions: for Plant response rating, Galium: 125 g ai/ha, 0 to 100 scale; for Galium plant response rating (0 to 100 scale, 0 is no effect, 100 is complete control): 500 g ai/ha
Summary of the method: as §3

kochia = experiment: Test A pre-/postemergence herbicide test; type: in vivo, Kochia scoparia; conditions: for Plant response rating, Kochia: 0 to 100 scale
Summary of the method: as §2

wheat = experiment: Test A pre-/postemergence herbicide test; type: in vivo, Triticum aestivum; conditions: Postemergence; for Plant response rating, Wheat: 125 g ai/ha, 0 to 100 scale; for Wheat plant response rating (0 to 100 scale, 0 is no effect, 100 is complete control): 500 g ai/ha
Summary of the method: as §2

giant foxtail = experiment: Test A pre-/postemergence herbicide test; type: in vivo, Setaria faberii; conditions: for Plant response rating, Foxtail, Giant: 0 to 100 scale
Summary of the method: as §2

ragweed = experiment: Test A pre-/postemergence herbicide test; type: in vivo, Ambrosia elatior; conditions: for Plant response rating, Ragweed: 0 to 100 scale
Summary of the method: as §2

sedge, umbrella = experiment: Test C flooded paddy test; type: in vivo, Cyperus difformis; conditions: Flood
Summary of the method: as §1

[3] = 125 g ai/ha, scale of 0 to 100 where 0 is no effect and 100 is complete control, 13 to 15 days
[4] = 125 g ai/ha, visual rating, 0 to 100 scale, 0 no effect, 100 complete control, approximately 10 days, preemergence
[5] = 125 g ai/ha, 0 to 100 scale, 0 no effect, 100 complete control
[6] = 500 g ai/ha, 0 to 100 scale (0 no effect, 100 complete control)
[7] = 125 g ai/ha, visual rating, 0 no effect, 100 complete control, approximately 10 days, preemergence
[8] = Postemergence, 125 g ai/ha, 0 no effect, 100 complete control
[9] = 0 no effect, 100 complete control
[10] = 250 g ai/ha, scale of 0 to 100 where 0 is no effect and 100 is complete control, 13 to 15 days
[11] = 125 g ai/ha, 0 to 100 scale, 0 is no effect, 100 is complete control
[12] = Postemergence, 125 g ai/ha, 0 is no effect, 100 is complete control
[13] = preemergence, 500 g ai/ha, 0 is no effect and 100 is complete control
[14] = 0 is no effect, 100 is complete control

## O=C1NCC(c2cccc(C(F)(F)F)c2)C1C(=O)Nc1nc(C(F)(F)F)co1 (racemic) [Compound 114]
ducksalad; [3]
  Plant response rating, Ducksalad: 20
ducksalad; 250 g ai/ha, scale 0 to 100
  Plant response rating, Ducksalad: 30
ducksalad; 500 g ai/ha, scale 0 to 100
  Plant response rating, Ducksalad: 70
ducksalad; 1000 g ai/ha, scale 0 to 100
  Plant response rating, Ducksalad: 80
Barnyardgrass [1]; [4]
  Plant response rating, Barnyardgrass: 20
Barnyardgrass [1]; Postemergence, 125 g ai/ha, 0 to 100 scale, 0 no effect, 100 complete control
  Plant response rating, Barnyardgrass: 20
Barnyardgrass [1]; Postemergence, 500 g ai/ha, 0 to 100 scale (0 no effect, 100 complete control)
  Plant response rating, Barnyardgrass: 60
Barnyardgrass [1]; preemergence, 500 g ai/ha, 0 to 100 scale (0 no effect, 100 complete control)
  Plant response rating, Barnyardgrass: 50
rice; [3]
  Plant response rating, Rice: 0
rice; 250 g ai/ha, scale 0 to 100
  Plant response rating, Rice: 0
rice; 500 g ai/ha, scale 0 to 100
  Plant response rating, Rice: 0
rice; 1000 g ai/ha, scale 0 to 100
  Plant response rating, Rice: 0
corn; [5]
  Plant response rating, Corn: 0
corn; [6]
  Plant response rating, Corn: 20
pigweed; [7]
  Plant response rating, Pigweed: 0
pigweed; [8]
  Plant response rating, Pigweed: 0
pigweed; Postemergence, 500 g ai/ha
  Pigweed plant response rating (0 to 100 scale, 0 is no effect, 100 is complete control): 0
pigweed; preemergence, 500 g ai/ha
  Plant response rating, Pigweed: 0
ryegrass, Italian; [7]
  Plant response rating, Ryegrass, Italian: 0
ryegrass, Italian; [8]
  Plant response rating, Ryegrass, Italian: 0
ryegrass, Italian; Postemergence, 500 g ai/ha
  Ryegrass, Italian plant response rating (0 to 100 scale, 0 is no effect, 100 is complete control): 60
ryegrass, Italian; preemergence, 500 g ai/ha
  Plant response rating, Ryegrass, Italian: 30
Barnyardgrass [2]; [3]
  Plant response rating, Barnyardgrass: 0
Barnyardgrass [2]; 250 g ai/ha, scale 0 to 100
  Plant response rating, Barnyardgrass: 0
Barnyardgrass [2]; 500 g ai/ha, scale 0 to 100
  Plant response rating, Barnyardgrass: 0
Barnyardgrass [2]; 1000 g ai/ha, scale 0 to 100
  Plant response rating, Barnyardgrass: 0
blackgrass; [5]
  Plant response rating, Blackgrass: 20
blackgrass; [6]
  Plant response rating, Blackgrass: 30
galium; [9]
  Plant response rating, Galium: 0
galium
  Galium plant response rating (0 to 100 scale, 0 is no effect, 100 is complete control): 20
kochia; [7]
  Plant response rating, Kochia: 0
kochia; [8]
  Plant response rating, Kochia: 0
kochia; Postemergence, 500 g ai/ha
  Kochia plant response rating (0 to 100 scale, 0 is no effect, 100 is complete control): 20
kochia; preemergence, 500 g ai/ha
  Plant response rating, Kochia: 0
wheat; [9]
  Plant response rating, Wheat: 0
wheat
  Wheat plant response rating (0 to 100 scale, 0 is no effect, 100 is complete control): 20
Giant foxtail; [7]
  Plant response rating, Foxtail, Giant: 20
Giant foxtail; [8]
  Plant response rating, Foxtail, Giant: 40
Giant foxtail; Postemergence, 500 g ai/ha
  Foxtail, Giant plant response rating (0 to 100 scale, 0 is no effect, 100 is complete control): 70
Giant foxtail; preemergence, 500 g ai/ha
  Plant response rating, Foxtail, Giant: 70
ragweed; [7]
  Plant response rating, Ragweed: 0
ragweed; [8]
  Plant response rating, Ragweed: 0
ragweed; Postemergence, 500 g ai/ha
  Ragweed plant response rating (0 to 100 scale, 0 is no effect, 100 is complete control): 0
ragweed; preemergence, 500 g ai/ha
  Plant response rating, Ragweed: 0
sedge, umbrella; [3]
  Plant response rating, Sedge, Umbrella: 0
sedge, umbrella; 250 g ai/ha, scale 0 to 100
  Plant response rating, Sedge, Umbrella: 0
sedge, umbrella; 500 g ai/ha, scale 0 to 100
  Plant response rating, Sedge, Umbrella: 0
sedge, umbrella; 1000 g ai/ha, scale 0 to 100
  Plant response rating, Sedge, Umbrella: 0

## O=C1NCC(c2cccc(C(F)(F)F)c2)C1C(=O)Nc1cccc(F)c1 (racemic) [Compound 208]
ducksalad; [3]
  Plant response rating, Ducksalad: 0
ducksalad; [10]
  Plant response rating, Ducksalad: 45
ducksalad; 500 g ai/ha, scale 0 to 100
  Plant response rating, Ducksalad: 45
ducksalad; 1000 g ai/ha, scale 0 to 100
  Plant response rating, Ducksalad: 100
Barnyardgrass [1]; [4]
  Plant response rating, Barnyardgrass: 40
Barnyardgrass [1]; Postemergence, 125 g ai/ha, 0 to 100 scale, 0 is no effect, 100 is complete control
  Plant response rating, Barnyardgrass: 50
Barnyardgrass [1]; Postemergence, 500 g ai/ha
  Barnyardgrass plant response rating (0 to 100 scale, 0 is no effect, 100 is complete control): 80
Barnyardgrass [1]; preemergence, 500 g ai/ha, 0 to 100 scale, 0 is no effect and 100 is complete control
  Plant response rating, Barnyardgrass: 90
rice; [3]
  Plant response rating, Rice: 0
rice; [10]
  Plant response rating, Rice: 0
rice; 500 g ai/ha, scale 0 to 100
  Plant response rating, Rice: 0
rice; 1000 g ai/ha, scale 0 to 100
  Plant response rating, Rice: 15
corn; [11]
  Plant response rating, Corn: 0
corn; 500 g ai/ha
  Corn plant response rating (0 to 100 scale, 0 is no effect, 100 is complete control): 50
pigweed; [7]
  Plant response rating, Pigweed: 0
pigweed; [12]
  Plant response rating, Pigweed: 0
pigweed; Postemergence, 500 g ai/ha
  Pigweed plant response rating (0 to 100 scale, 0 is no effect, 100 is complete control): 0
pigweed; [13]
  Plant response rating, Pigweed: 0
ryegrass, Italian; [7]
  Plant response rating, Ryegrass, Italian: 0
ryegrass, Italian; [12]
  Plant response rating, Ryegrass, Italian: 0
ryegrass, Italian; Postemergence, 500 g ai/ha
  Ryegrass, Italian plant response rating (0 to 100 scale, 0 is no effect, 100 is complete control): 40
ryegrass, Italian; [13]
  Plant response rating, Ryegrass, Italian: 20
Barnyardgrass [2]; [3]
  Plant response rating, Barnyardgrass: 0
Barnyardgrass [2]; [10]
  Plant response rating, Barnyardgrass: 20
Barnyardgrass [2]; 500 g ai/ha, scale 0 to 100
  Plant response rating, Barnyardgrass: 45
Barnyardgrass [2]; 1000 g ai/ha, scale 0 to 100
  Plant response rating, Barnyardgrass: 65
blackgrass; [11]
  Plant response rating, Blackgrass: 20
blackgrass; 500 g ai/ha
  Blackgrass plant response rating (0 to 100 scale, 0 is no effect, 100 is complete control): 60
galium; [14]
  Plant response rating, Galium: 0
galium
  Galium plant response rating (0 to 100 scale, 0 is no effect, 100 is complete control): 50
kochia; [7]
  Plant response rating, Kochia: 0
kochia; [12]
  Plant response rating, Kochia: 0
kochia; Postemergence, 500 g ai/ha
  Kochia plant response rating (0 to 100 scale, 0 is no effect, 100 is complete control): 60
kochia; [13]
  Plant response rating, Kochia: 20
wheat; [14]
  Plant response rating, Wheat: 0
wheat
  Wheat plant response rating (0 to 100 scale, 0 is no effect, 100 is complete control): 40
Giant foxtail; [7]
  Plant response rating, Foxtail, Giant: 80
Giant foxtail; [12]
  Plant response rating, Foxtail, Giant: 90
Giant foxtail; Postemergence, 500 g ai/ha
  Foxtail, Giant plant response rating (0 to 100 scale, 0 is no effect, 100 is complete control): 90
Giant foxtail; [13]
  Plant response rating, Foxtail, Giant: 90
ragweed; [7]
  Plant response rating, Ragweed: 0
ragweed; [12]
  Plant response rating, Ragweed: 0
ragweed; Postemergence, 500 g ai/ha
  Ragweed plant response rating (0 to 100 scale, 0 is no effect, 100 is complete control): 20
ragweed; [13]
  Plant response rating, Ragweed: 0
sedge, umbrella; [3]
  Plant response rating, Sedge, Umbrella: 0
sedge, umbrella; [10]
  Plant response rating, Sedge, Umbrella: 0
sedge, umbrella; 500 g ai/ha, scale 0 to 100
  Plant response rating, Sedge, Umbrella: 0
sedge, umbrella; 1000 g ai/ha, scale 0 to 100
  Plant response rating, Sedge, Umbrella: 0
